Measurements: patent publication US12371428B2 (Exelixis, Inc., priority 2019, dated 2025)

Columns and labels:
Type in all cases: cell-based
[1] = molecular target: AXL (phospho-AXL, Gas6-stimulated A-172 glioblastoma cells) (Homo sapiens (Human), UniProt P30530); experiment: AXL autophosphorylation ELISA in A-172 cells (Example E); details: cellular activity; AXL autophosphorylation ELISA in A-172 cells; read-out: Axl IC50
In short: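 Phospho-AXL was measured by ELISA in lysates of Gas6-stimulated A-172 cells, starved 24 h in serum-free medium and exposed 1 h to an 8-point compound dilution at 0.3% DMSO.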

[2] = molecular target: Met (phospho-Met, HGF-stimulated PC-3 prostate cancer cells) (Homo sapiens (Human), UniProt P08581); experiment: Met autophosphorylation ELISA in PC-3 cells (Example F); details: cellular activity; Met autophosphorylation ELISA in PC-3 cells; read-out: c-Met IC50
In short: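 Serum-starved (3 h) PC-3 cells were treated 1 h with compounds (8-point curve, 0.3% DMSO), then stimulated with 100 ng/mL human HGF for 10 min. Lysate phospho-Met (panTyr) was measured by sandwich ELISA, normalised to DMSO and reference-inhibitor controls. IC50 came from 4-parameter logistic fit.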

[3] = molecular target: KDR (phospho-KDR, VEGF165-stimulated HUVEC cells) (Homo sapiens (Human), UniProt P35968); experiment: KDR autophosphorylation ELISA in HUVEC cells (Example G); details: cellular activity; KDR autophosphorylation ELISA in HUVEC cells
In short: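 Read-out is phospho-KDR measured by ELISA in lysates of VEGF165-stimulated (100 ng/mL, 5 min) HUVEC that were serum-starved 24 h and then pre-exposed 1 h to compound across 8 doses in 0.3% DMSO. Unstimulated lysates defined 0% and stimulated vehicle lysates 100% activity; IC50 values come from 4-parameter logistic regression.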

[4] = molecular target: Mer (phospho-Mer, MERTK-transfected 293A cells) (Homo sapiens (Human), UniProt Q12866); experiment: Mer autophosphorylation ELISA in transient transfected 293A cells (Example H); details: cellular activity; Mer autophosphorylation ELISA in transient transfected 293A cells
In short: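 MERTK-transfected 293A; 8-pt dose, 1 h, serum-free, 0.3% DMSO. Cold lysis with orthovanadate and protease/phosphatase inhibitors. Phospho-Mer by DuoSet IC ELISA vs phospho-Mer standard. IC50: 4-PL fit; DMSO = 100%, reference inhibitor = 0%.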

Met (phospho-Met, HGF-stimulated PC-3 prostate cancer cells), sequence (P08581 25-1390): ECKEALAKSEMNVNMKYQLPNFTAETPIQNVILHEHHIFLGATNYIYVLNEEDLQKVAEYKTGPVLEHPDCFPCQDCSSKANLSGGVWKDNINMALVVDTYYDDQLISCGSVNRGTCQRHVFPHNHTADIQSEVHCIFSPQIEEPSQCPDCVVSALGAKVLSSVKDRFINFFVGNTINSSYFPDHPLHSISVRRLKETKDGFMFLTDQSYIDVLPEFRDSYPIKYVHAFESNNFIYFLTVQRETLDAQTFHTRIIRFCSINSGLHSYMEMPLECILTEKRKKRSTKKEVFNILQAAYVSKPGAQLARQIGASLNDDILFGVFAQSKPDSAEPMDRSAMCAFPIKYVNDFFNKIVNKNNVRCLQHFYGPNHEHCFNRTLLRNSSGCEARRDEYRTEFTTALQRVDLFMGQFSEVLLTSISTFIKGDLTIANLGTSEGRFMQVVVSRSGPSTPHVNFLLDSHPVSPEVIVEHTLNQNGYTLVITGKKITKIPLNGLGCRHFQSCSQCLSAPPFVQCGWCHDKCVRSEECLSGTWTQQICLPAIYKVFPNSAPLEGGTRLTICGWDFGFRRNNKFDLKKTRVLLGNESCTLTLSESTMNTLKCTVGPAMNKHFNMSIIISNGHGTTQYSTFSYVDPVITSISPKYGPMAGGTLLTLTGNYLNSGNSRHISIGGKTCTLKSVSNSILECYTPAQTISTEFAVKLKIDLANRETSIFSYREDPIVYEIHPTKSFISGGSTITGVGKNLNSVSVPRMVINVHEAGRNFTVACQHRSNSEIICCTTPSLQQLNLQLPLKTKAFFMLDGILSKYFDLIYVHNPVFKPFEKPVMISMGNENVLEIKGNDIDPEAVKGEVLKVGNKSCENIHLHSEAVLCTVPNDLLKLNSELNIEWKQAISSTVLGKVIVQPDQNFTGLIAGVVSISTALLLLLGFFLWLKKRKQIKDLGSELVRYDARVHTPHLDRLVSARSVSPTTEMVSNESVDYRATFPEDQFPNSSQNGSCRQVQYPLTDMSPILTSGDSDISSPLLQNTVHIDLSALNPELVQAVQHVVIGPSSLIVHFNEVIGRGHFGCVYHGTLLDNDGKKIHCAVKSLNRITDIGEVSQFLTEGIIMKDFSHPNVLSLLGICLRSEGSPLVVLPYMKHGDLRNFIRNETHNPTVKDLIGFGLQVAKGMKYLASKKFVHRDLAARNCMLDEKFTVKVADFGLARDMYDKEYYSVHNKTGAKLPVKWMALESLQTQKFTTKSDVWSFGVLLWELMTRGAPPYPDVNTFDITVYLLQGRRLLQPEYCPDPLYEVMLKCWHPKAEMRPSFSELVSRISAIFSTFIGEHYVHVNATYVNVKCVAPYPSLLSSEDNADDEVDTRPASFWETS
AXL (phospho-AXL, Gas6-stimulated A-172 glioblastoma cells), sequence (P30530 26-894): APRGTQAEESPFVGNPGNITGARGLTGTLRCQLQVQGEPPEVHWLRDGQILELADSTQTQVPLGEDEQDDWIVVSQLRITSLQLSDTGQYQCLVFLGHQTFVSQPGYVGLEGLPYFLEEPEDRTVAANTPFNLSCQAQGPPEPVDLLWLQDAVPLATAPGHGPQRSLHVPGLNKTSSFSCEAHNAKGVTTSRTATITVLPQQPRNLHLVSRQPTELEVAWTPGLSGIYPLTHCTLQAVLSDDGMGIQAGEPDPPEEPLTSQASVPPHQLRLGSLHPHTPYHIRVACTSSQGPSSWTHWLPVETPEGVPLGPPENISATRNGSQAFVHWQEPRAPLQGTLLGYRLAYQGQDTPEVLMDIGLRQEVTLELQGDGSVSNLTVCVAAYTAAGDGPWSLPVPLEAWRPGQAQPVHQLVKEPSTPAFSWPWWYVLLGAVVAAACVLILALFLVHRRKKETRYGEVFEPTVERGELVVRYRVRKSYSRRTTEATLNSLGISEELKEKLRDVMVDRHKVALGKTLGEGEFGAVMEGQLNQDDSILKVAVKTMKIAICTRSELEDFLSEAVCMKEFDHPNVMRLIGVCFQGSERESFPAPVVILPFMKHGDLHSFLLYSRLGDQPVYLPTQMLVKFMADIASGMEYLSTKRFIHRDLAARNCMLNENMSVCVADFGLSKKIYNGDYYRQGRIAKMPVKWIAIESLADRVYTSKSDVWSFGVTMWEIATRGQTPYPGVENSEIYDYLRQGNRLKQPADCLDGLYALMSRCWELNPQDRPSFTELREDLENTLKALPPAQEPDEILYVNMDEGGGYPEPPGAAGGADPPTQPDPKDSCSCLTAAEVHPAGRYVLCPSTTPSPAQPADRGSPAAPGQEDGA
KDR (phospho-KDR, VEGF165-stimulated HUVEC cells), sequence (P35968 20-1356): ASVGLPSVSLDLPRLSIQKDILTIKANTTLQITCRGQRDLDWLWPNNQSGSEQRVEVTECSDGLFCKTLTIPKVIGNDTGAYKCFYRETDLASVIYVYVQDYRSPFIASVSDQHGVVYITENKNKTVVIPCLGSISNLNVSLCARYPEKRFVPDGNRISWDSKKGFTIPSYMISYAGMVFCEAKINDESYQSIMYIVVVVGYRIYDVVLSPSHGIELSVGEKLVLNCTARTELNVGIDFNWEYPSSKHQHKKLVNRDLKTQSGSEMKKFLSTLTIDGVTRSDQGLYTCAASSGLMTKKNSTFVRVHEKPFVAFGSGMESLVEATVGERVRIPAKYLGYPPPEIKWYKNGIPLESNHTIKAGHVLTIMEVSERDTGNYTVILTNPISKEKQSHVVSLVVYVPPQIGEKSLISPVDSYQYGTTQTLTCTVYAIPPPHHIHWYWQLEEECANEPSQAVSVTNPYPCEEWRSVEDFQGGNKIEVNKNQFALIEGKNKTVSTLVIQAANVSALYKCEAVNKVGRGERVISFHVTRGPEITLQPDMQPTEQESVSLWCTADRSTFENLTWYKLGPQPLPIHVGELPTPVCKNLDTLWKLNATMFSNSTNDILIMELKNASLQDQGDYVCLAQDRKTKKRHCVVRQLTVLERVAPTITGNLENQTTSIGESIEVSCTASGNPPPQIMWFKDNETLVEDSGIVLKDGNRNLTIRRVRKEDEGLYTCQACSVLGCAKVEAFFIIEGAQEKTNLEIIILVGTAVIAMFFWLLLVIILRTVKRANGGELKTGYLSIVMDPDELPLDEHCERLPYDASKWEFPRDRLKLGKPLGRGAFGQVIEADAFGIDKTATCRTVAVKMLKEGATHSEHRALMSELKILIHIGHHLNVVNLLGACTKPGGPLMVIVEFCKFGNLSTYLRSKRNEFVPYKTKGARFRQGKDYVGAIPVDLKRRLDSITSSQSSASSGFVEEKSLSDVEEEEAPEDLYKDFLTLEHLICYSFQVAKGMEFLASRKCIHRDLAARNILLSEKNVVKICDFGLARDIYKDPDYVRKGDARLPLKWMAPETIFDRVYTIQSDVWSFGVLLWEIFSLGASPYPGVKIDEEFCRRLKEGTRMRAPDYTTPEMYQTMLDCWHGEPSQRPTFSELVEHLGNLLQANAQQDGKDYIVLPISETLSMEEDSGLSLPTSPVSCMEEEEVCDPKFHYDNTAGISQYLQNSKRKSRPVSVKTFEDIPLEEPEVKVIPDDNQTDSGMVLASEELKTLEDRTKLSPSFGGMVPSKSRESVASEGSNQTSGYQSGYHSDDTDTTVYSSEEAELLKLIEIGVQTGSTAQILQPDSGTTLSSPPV
Mer (phospho-Mer, MERTK-transfected 293A cells), sequence (Q12866 21-999): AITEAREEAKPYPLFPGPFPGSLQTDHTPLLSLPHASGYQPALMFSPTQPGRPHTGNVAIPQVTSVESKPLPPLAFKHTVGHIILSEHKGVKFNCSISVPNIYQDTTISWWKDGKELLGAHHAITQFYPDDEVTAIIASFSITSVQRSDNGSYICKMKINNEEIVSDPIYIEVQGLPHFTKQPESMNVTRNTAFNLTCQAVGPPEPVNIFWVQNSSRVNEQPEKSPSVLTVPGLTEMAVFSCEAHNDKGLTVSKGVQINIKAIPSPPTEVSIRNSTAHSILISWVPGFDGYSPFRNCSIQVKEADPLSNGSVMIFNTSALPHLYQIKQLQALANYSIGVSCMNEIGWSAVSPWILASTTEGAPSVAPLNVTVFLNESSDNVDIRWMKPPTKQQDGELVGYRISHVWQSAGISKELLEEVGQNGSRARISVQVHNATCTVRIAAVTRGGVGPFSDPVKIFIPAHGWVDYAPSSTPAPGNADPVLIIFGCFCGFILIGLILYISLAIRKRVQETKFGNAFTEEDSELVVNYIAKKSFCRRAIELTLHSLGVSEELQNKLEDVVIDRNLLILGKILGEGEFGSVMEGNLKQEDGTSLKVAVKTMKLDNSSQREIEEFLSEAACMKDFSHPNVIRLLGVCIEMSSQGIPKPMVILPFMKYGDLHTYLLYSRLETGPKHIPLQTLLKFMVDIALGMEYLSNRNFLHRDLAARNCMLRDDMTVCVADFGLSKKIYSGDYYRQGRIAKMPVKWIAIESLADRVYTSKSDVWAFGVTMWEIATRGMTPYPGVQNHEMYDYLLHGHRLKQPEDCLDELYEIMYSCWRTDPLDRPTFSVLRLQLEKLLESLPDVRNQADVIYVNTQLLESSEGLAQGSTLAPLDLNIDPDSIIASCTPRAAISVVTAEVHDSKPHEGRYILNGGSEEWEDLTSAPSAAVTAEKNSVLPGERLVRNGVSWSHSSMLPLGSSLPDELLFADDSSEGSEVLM

Row | Structure (SMILES) | IC50 [1] [µM] | IC50 [2] [µM] | IC50 [3] [µM] | IC50 [4] [µM]
1 | COc1cc2nccc(Oc3ccc(NC(=O)c4cn(CC(F)F)c(C)c(-c5ccc(F)cc5C)c4=O)cc3)c2nc1OC [Compound 722, 1-(2,2-difluoroethyl)-N-[4-[(6,7-dimethoxy-1,5-naphthyridin-4-yl)oxy]phenyl]-5-(4-fluoro-2-methylphenyl)-6-methyl-4-oxopyridine-3-carboxamide] | < 0.1 | < 0.1 | > 0.3 | < 0.1
2 | COc1cnc2c(Oc3ccc(NC(=O)c4cn(CC(F)F)c(C)c(-c5ccc(F)cc5C)c4=O)cc3F)ccnc2c1 [Compound 723, 1-(2,2-difluoroethyl)-N-[3-fluoro-4-[(7-methoxy-1,5-naphthyridin-4-yl)oxy]phenyl]-5-(4-fluoro-2-methylphenyl)-6-methyl-4-oxopyridine-3-carboxamide] | < 0.1 | < 0.1 | > 0.3 | < 0.1
3 | COCCOc1cnc2c(Oc3ccc(NC(=O)c4c(C)nc(C)c(-c5ccc(F)cc5C)c4O)cc3)ccnc2c1 [Compound 724, 5-(4-fluoro-2-methylphenyl)-4-hydroxy-N-[4-[[7-(2-methoxyethoxy)-1,5-naphthyridin-4-yl]oxy]phenyl]-2,6-dimethylpyridine-3-carboxamide] | < 0.1 | < 0.1 | < 0.1 | < 0.1
4 | COCCOc1cc2nccc(Oc3ccc(NC(=O)c4c(C)nc(C)c(-c5ccc(F)cc5C)c4O)cc3)c2nc1OC [Compound 725, 5-(4-fluoro-2-methylphenyl)-4-hydroxy-N-[4-[[6-methoxy-7-(2-methoxyethoxy)-1,5-naphthyridin-4-yl]oxy]phenyl]-2,6-dimethylpyridine-3-carboxamide] | < 0.1 | < 0.1 | < 0.1 | < 0.1
5 | CNC(=O)c1cc2nccc(Oc3cc(F)c(NC(=O)c4ccc(C)n(-c5ccc(F)cc5)c4=O)cc3F)c2cc1C [Compound 726, 4-[2,5-difluoro-4-[[1-(4-fluorophenyl)-6-methyl-2-oxopyridine-3-carbonyl]amino]phenoxy]-N,6-dimethylquinoline-7-carboxamide] | < 0.1 | < 0.1 | < 0.1 | < 0.1
6 | COc1cc2nccc(Oc3ccc(NC(=O)c4cn(C)c(C5CC5)c(-c5ccc(F)cc5)c4=O)cc3F)c2nc1OC [Compound 728, 6-cyclopropyl-N-[4-[(6,7-dimethoxy-1,5-naphthyridin-4-yl)oxy]-3-fluorophenyl]-5-(4-fluorophenyl)-1-methyl-4-oxopyridine-3-carboxamide] | < 0.1 | < 0.1 | 0.1 to 0.3 | < 0.1
7 | COc1cc2nccc(Oc3ccc(NC(=O)c4cn(CC(F)F)c(C)c(-c5ccc(F)cc5C)c4=O)cc3F)c2nc1OC [Compound 730, 1-(2,2-difluoroethyl)-N-[4-[(6,7-dimethoxy-1,5-naphthyridin-4-yl)oxy]-3-fluorophenyl]-5-(4-fluoro-2-methylphenyl)-6-methyl-4-oxopyridine-3-carboxamide] | < 0.1 | < 0.1 | 0.1 to 0.3 | < 0.1
8 | COc1cnc2c(Oc3ccc(NC(=O)c4cn(CC(F)F)c(C)c(-c5ccc(F)cc5C)c4=O)cc3)ccnc2c1 [Compound 731, 1-(2,2-difluoroethyl)-5-(4-fluoro-2-methylphenyl)-N-[4-[(7-methoxy-1,5-naphthyridin-4-yl)oxy]phenyl]-6-methyl-4-oxopyridine-3-carboxamide] | < 0.1 | < 0.1 | > 0.3 | < 0.1
9 | COc1cc2nccc(Oc3ccc(NC(=O)c4c(C)c(C)nn(-c5ccc(F)cc5)c4=O)cc3)c2nc1OC [Compound 732, N-[4-[(6,7-dimethoxy-1,5-naphthyridin-4-yl)oxy]phenyl]-2-(4-fluorophenyl)-5,6-dimethyl-3-oxopyridazine-4-carboxamide] | < 0.1 | < 0.1 | > 0.3 | < 0.1
10 | COc1cnc2c(Oc3ccc(NC(=O)c4c(C)c(C)nn(-c5ccc(F)cc5)c4=O)cc3)ccnc2c1 [Compound 733, 2-(4-fluorophenyl)-N-[4-[(7-methoxy-1,5-naphthyridin-4-yl)oxy]phenyl]-5,6-dimethyl-3-oxopyridazine-4-carboxamide] | > 0.3 | < 0.1 | > 0.3 | < 0.1
11 | COc1cnc2c(Oc3ccc(NC(=O)c4c(C)c(C)nn(-c5ccc(F)cc5)c4=O)cc3F)ccnc2c1 [Compound 734, N-[3-fluoro-4-[(7-methoxy-1,5-naphthyridin-4-yl)oxy]phenyl]-2-(4-fluorophenyl)-5,6-dimethyl-3-oxopyridazine-4-carboxamide] | 0.1 to 0.3 | < 0.1 | > 0.3 | < 0.1
12 | COc1cc2nccc(Oc3ccc(NC(=O)c4c(C)nc(C)c(-c5ccc(F)cc5C)c4O)cc3)c2nc1Cl [Compound 735, N-[4-[(6-chloro-7-methoxy-1,5-naphthyridin-4-yl)oxy]phenyl]-5-(4-fluoro-2-methylphenyl)-4-hydroxy-2,6-dimethylpyridine-3-carboxamide] | < 0.1 | < 0.1 | < 0.1 | < 0.1
13 | COc1cc2nccc(Oc3ccc(NC(=O)c4c(C)nc(C)c(-c5ccc(F)cc5C)c4O)cc3F)c2nc1Cl [Compound 736, N-[4-[(6-chloro-7-methoxy-1,5-naphthyridin-4-yl)oxy]-3-fluorophenyl]-5-(4-fluoro-2-methylphenyl)-4-hydroxy-2,6-dimethylpyridine-3-carboxamide] | < 0.1 | < 0.1 | < 0.1 | < 0.1
14 | COc1cc2nccc(Oc3cc(F)c(NC(=O)c4c(C)nc(C)c(-c5ccc(F)cc5C)c4O)cc3F)c2nc1Cl [Compound 737, N-[4-[(6-chloro-7-methoxy-1,5-naphthyridin-4-yl)oxy]-2,5-difluorophenyl]-5-(4-fluoro-2-methylphenyl)-4-hydroxy-2,6-dimethylpyridine-3-carboxamide] | < 0.1 | < 0.1 | < 0.1 | < 0.1
15 | COc1cc2nccc(Oc3ccc(NC(=O)c4c(C)[nH]nc(-c5ccc(F)cc5C)c4=O)cc3F)c2nc1OC [Compound 738, N-[4-[(6,7-dimethoxy-1,5-naphthyridin-4-yl)oxy]-3-fluorophenyl]-3-(4-fluoro-2-methylphenyl)-6-methyl-4-oxo-1H-pyridazine-5-carboxamide] | < 0.1 | < 0.1 | < 0.1 | < 0.1
16 | COc1cc2nccc(Oc3ccc(NC(=O)c4c(C)c(C(C)=O)cn(-c5ccc(F)cc5C)c4=O)cc3F)c2nc1OC [Compound 739, 5-acetyl-N-[4-[(6,7-dimethoxy-1,5-naphthyridin-4-yl)oxy]-3-fluorophenyl]-1-(4-fluoro-2-methylphenyl)-4-methyl-2-oxopyridine-3-carboxamide] | < 0.1 | < 0.1 | > 0.3 | < 0.1
17 | C=Cc1c(C)c(C(=O)Nc2ccc(Oc3ccnc4cc(OCCOC)c(OC)nc34)c(F)c2)c(=O)n(-c2ccc(F)cc2)c1C [Compound 740, 5-ethenyl-N-[3-fluoro-4-[[6-methoxy-7-(2-methoxyethoxy)-1,5-naphthyridin-4-yl]oxy]phenyl]-1-(4-fluorophenyl)-4,6-dimethyl-2-oxopyridine-3-carboxamide] | < 0.1 | < 0.1 | < 0.1 | < 0.1
